Results from patent publication US12187709B2 (Genentech, Inc., priority 2021, dated 2025).

How the values were obtained:
[1] = molecular target: Human Cbl-b (residues 40-426) (Homo sapiens (Human), UniProt Q13191); assay: Cbl-b SPR assay; format: binding; conditions: for Fold of selectivity: C-cbl SPR Kd vs Cbl-b SPR Kd; for Kd: SPR, 20° C.
Procedure, shortened: (§1)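 Where a chaser compound was used, % compound bound was calculated as (1−(RUT/RUT0))*100 relative to a prior chaser injection and fitted to a single exponential for kd. The single cycle titration (max 500 nM) was then fitted with kd held fixed.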

[2] = molecular target: c-Cbl (Homo sapiens (Human), UniProt P22681); assay: C-Cbl LCK Ub TR-FRET assay (C-cbl Lck HTRF); format: biochemical
Procedure, shortened: (§2)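 Detection reagents added, brief spin, 20 min RT. IC50 fit normalized to no-LCK (low) and DMSO (high) controls.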

[3] = molecular target: c-Cbl (residues 47-435) (Homo sapiens (Human), UniProt P22681); assay: c-Cbl SPR assay; format: binding; conditions: 20° C.
Procedure, shortened: as §1

[4] = molecular target: Cbl-b (Homo sapiens (Human), UniProt Q13191); assay: Cbl-b LCK Ub TR-FRET assay (Cbl-b Lck HTRF); format: biochemical; conditions: for IC50: Cbl-b LCK Ub TR-FRET; for fold-selectivity (Cbl-b over C-cbl) / (fold-selectivity) Cbl-b and C-Cbl Selectivity: ratio C-cbl Lck HTRF IC50 / Cbl-b Lck HTRF IC50
Procedure, shortened: as §2

Chain of Human Cbl-b (residues 40-426) (Q13191 40-426): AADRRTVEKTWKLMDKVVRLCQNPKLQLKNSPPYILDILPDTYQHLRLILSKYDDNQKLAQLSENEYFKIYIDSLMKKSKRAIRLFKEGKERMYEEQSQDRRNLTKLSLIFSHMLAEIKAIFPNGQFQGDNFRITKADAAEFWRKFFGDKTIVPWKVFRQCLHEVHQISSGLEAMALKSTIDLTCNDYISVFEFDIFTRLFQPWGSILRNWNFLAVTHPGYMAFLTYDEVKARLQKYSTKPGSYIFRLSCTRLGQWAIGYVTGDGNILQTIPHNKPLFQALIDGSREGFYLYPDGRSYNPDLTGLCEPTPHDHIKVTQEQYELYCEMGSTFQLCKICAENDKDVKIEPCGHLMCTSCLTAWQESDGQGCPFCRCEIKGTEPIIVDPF
Chain of Cbl-b (Q13191 40-426): as above
Chain of c-Cbl (P22681 47-435): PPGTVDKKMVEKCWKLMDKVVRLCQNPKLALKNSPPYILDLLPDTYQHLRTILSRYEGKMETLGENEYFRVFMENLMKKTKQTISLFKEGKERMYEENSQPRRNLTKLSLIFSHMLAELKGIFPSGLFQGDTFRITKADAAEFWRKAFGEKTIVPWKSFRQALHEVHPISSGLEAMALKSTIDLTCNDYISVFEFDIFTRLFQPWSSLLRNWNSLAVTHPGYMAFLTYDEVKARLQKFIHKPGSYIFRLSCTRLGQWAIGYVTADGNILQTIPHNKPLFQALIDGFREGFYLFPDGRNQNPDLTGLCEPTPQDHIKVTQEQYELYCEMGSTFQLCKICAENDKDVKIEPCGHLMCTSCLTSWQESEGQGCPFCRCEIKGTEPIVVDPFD
Chain of c-Cbl (residues 47-435) (P22681 47-435): as above

Work on `Cn1cnnc1[C@]1(c2cccc(N3Cc4c(cc(CNC5(C)CCC5)cc4C(F)(F)F)C3=O)c2)C[C@@H](OC(F)F)C1` [Compound 334, 2-(3-((1r,3r)-3-(difluoromethoxy)-1-(4-methyl-4H-1,2,4-triazol-3-yl)cyclobutyl)phenyl)-6-(((1-methylcyclobutyl)amino)methyl)-4-(trifluoromethyl)isoindolin-1-one] yielded a Fold of selectivity [1] of 26×, a Kd [1] of 0.85 nM and an IC50 [2] of 14 nM. For the same compound, the Kd [3] was 22 nM, the IC50 [4] was 5.9 nM and the “fold-selectivity (Cbl-b over C-cbl)” value [4] was 2.5x.

In the case of `CC(C)[C@H]1CN(C)CCN1Cc1cc2c(c(C(F)(F)F)c1)CN(c1cc([C@]3(c4nncn4C)C[C@@H](C)C3)cc(OC3CCCC3)n1)C2=O` [Compound 72, 2-(6-(cyclopentyloxy)-4-((1S,3R)-3-methyl-1-(4-methyl-4H-1,2,4-triazol-3-y)cyclobutyl)pyridin-2-yl)-6-(((S)-2-isopropyl-4-methylpiperazin-1-yl)methyl)-4-(trifluoromethyl)isoindolin-1-one], the Fold of selectivity [1] is reported as 4.5×, the Kd [1] is reported as 0.4 nM and the IC50 [2] is reported as 5300 nM. For the same compound, the Kd [3] was 1.8 nM, the IC50 [4] was 2400 nM and the “fold-selectivity (Cbl-b over C-cbl)” value [4] was “(2.4x)”.

With `CO[C@H]1C[C@@](c2cc(NC3CCC3)cc(N3Cc4c(cc(CNC5(C)CCC5)cc4C(F)(F)F)C3=O)c2)(c2nncn2C)C1` [Compound 217, 2-(3-(cyclobutylamino)-5-((1s,3s)-3-methoxy-1-(4-methyl-4H-1,2,4-triazol-3-yl)cyclobutyl)phenyl)-6-(((1-methylcyclobutyl)amino)methyl)-4-(trifluoromethyl)isoindolin-1-one] the Fold of selectivity [1] was 13×, the Kd [1] was 7.5 nM and the IC50 [2] was 97 nM. For the same compound, the Kd [3] was 91 nM, the IC50 [4] was 18 nM and the “fold-selectivity (Cbl-b over C-cbl)” value [4] was 5.5x.

For `Cn1cnnc1[C@H](c1cccc(N2Cc3c(cc(CNC4(C)CCC4)cc3C(F)(F)F)C2=O)c1)C1(F)COC1` (single isomer, unassigned) [Compound 381], the Fold of selectivity [1] was 6.0×, the Kd [1] was 2.7 nM and the IC50 [2] was 16 nM. For the same compound, the Kd [3] was 16 nM, the IC50 [4] was 8.8 nM and the “fold-selectivity (Cbl-b over C-cbl)” value [4] was 1.9x.

Compound `CC(C)O[C@H]1C[C@@](c2cccc(N3Cc4c(cc(CNC5(C)CCC5)cc4C(F)(F)F)C3=O)c2)(c2nncn2C)C1` [Compound 222, 2-(3-((1s,3s)-3-isopropoxy-1-(4-methyl-4H-1,2,4-triazol-3-yl)cyclobutyl)phenyl)-6-(((1-methylcyclobutyl)amino)methyl)-4-(trifluoromethyl)isoindolin-1-one] has a Fold of selectivity [1] of 13×, a Kd [1] of 14 nM and an IC50 [2] of 270 nM. The Kd [3] was 200 nM, the IC50 [4] was 64 nM and the “fold-selectivity (Cbl-b over C-cbl)” value [4] was 4.2x.

In the case of `Cn1cnnc1[C@]1(c2cc(OC3CCCC3)cc(N3Cc4c(cc(CNC5(C)CCC5)cc4C(F)(F)F)C3=O)c2)C[C@H](C)C1` [Compound 186, 2-(3-(cyclopentyloxy)-5-((1s,3s)-3-methyl-1-(4-methyl-4H-1,2,4-triazol-3-yl)cyclobutyl)phenyl)-6-(((1-methylcyclobutyl)amino)methyl)-4-(trifluoromethyl)isoindolin-1-one], the Fold of selectivity [1] is reported as 5.2×, the Kd [1] is reported as 13 nM and the IC50 [2] is reported as 100 nM. The Kd [3] was 72 nM, the IC50 [4] was 35 nM and the “fold-selectivity (Cbl-b over C-cbl)” value [4] was 2.9x.

Compound `Cn1cnnc1[C@]1(c2cc(NC3CCCC3)cc(N3Cc4c(cc(CNC5(C)CCC5)cc4C(F)(F)F)C3=O)c2)C[C@@H](C)C1` [Compound 183, 2-(3-(cyclopentylamino)-5-((1r,3r)-3-methyl-1-(4-methyl-4H-1,2,4-triazol-3-yl)cyclobutyl)phenyl)-6-(((1-methylcyclobutyl)amino)methyl)-4-(trifluoromethyl)isoindolin-1-one] has a Fold of selectivity [1] of 5.8×, a Kd [1] of 3.2 nM and an IC50 [2] of 58 nM. For the same compound, the Kd [3] was 18 nM, the IC50 [4] was 18 nM and the “fold-selectivity (Cbl-b over C-cbl)” value [4] was 3.4x.

For `Cn1cnnc1C1(c2cccc(N3Cc4c(cc(CNC5(C)CCC5)cc4C(F)(F)F)C3=O)c2)CC2(COC2)C1` [Compound 65, 2-(3-(6-(4-methyl-4H-1,2,4-triazol-3-yl)-2-oxaspiro[3.3]heptan-6-yl)phenyl)-6-(((1-methylcyclobutyl)amino)methyl)-4-(trifluoromethyl)isoindolin-1-one], the Fold of selectivity [1] was 19×, the Kd [1] was 3.7 nM and the IC50 [2] was 62 nM. For the same compound, the Kd [3] was 68 nM, the IC50 [4] was 20 nM and the “fold-selectivity (Cbl-b over C-cbl)” value [4] was “(3.1x)”.

In the case of `COC1CC2(C1)CC(c1cccc(N3Cc4c(cc(CNC5(C)CCC5)cc4C(F)(F)F)C3=O)c1)(c1nncn1C)C2` (stereo not drawn) [Compound 229, 2-(3-(6-methoxy-2-(4-methyl-4H-1,2,4-triazol-3-yl)spiro[3.3]heptan-2-yl)phenyl)-6-(((1-methylcyclobutyl)amino)methyl)-4-(trifluoromethyl)isoindolin-1-one], the Fold of selectivity [1] is reported as 7.0×, the Kd [1] is reported as 110 nM and the IC50 [2] is reported as 1400 nM. For the same compound, the Kd [3] was 760 nM, the IC50 [4] was 230 nM and the “fold-selectivity (Cbl-b over C-cbl)” value [4] was 5.9x.

For `CCNc1cc([C@]2(c3nncn3C)C[C@H](C)C2)cc(N2Cc3c(cc(CNC4(C)CCC4)cc3C(F)(F)F)C2=O)c1F` [Compound 336, 2-(3-(ethylamino)-2-fluoro-5-((1r,3r)-3-methyl-1-(4-methyl-4H-1,2,4-triazol-3-yl)cyclobutyl)phenyl)-6-(((1-methylcyclobutyl)amino)methyl)-4-(trifluoromethyl)isoindolin-1-one], the Fold of selectivity [1] was 4.1×, the Kd [1] was 3.2 nM and the IC50 [2] was 9.1 nM. The Kd [3] was 13 nM, the IC50 [4] was 7.4 nM and the “fold-selectivity (Cbl-b over C-cbl)” value [4] was 1.2x.

`CNc1cc(N2Cc3c(cc(CNC4(C)CCC4)cc3C(F)(F)F)C2=O)cc([C@]2(c3nncn3C)C[C@H](OC)C2)c1` [Compound 239, 2-(3-((1r,3r)-3-methoxy-1-(4-methyl-4H-1,2,4-triazol-3-yl)cyclobutyl)-5-(methylamino)phenyl)-6-(((1-methylcyclobutyl)amino)methyl)-4-(trifluoromethyl)isoindolin-1-one] showed a Fold of selectivity [1] of 4.4×, a Kd [1] of 1 nM and an IC50 [2] of 13 nM. The Kd [3] was 4.4 nM, the IC50 [4] was 13 nM and the “fold-selectivity (Cbl-b over C-cbl)” value [4] was 1.0x.

With `CO[C@H]1C[C@](c2cccc(N3Cc4c(cc(CNC5CC(C#N)C5)cc4C(F)(F)F)C3=O)c2)(c2nncn2C)C1` (stereo partly drawn) [Compound 505, 3-(((2-(3-((1r,3r)-3-methoxy-1-(4-methyl-4H-1,2,4-triazol-3-yl)cyclobutyl)phenyl)-3-oxo-7-(trifluoromethyl)isoindolin-5-yl)methyl)amino)cyclobutanecarbonitrile] the Fold of selectivity [1] was 12×, the Kd [1] was 4.7 nM and the IC50 [2] was 30 nM. For the same compound, the Kd [3] was 64 nM, the IC50 ([4]; Example 121) was 7.3 nM and the “(fold-selectivity) Cbl-b and C-Cbl Selectivity” value [4] was 4.1x.

`Cn1cnnc1[C@@](C)(O)c1cccc(N2Cc3c(cc(CNC4(C)CCC4)cc3C(F)(F)F)C2=O)c1` [Compound 306, (S)-2-(3-(1-hydroxy-1-(4-methyl-4H-1,2,4-triazol-3-yl)ethyl)phenyl)-6-(((1-methylcyclobutyl)amino)methyl)-4-(trifluoromethyl)isoindolin-1-one] was tested, and the Fold of selectivity [1] was 2.0×, the Kd [1] was 140 nM and the IC50 [2] was 230 nM. For the same compound, the Kd [3] was 280 nM, the IC50 [4] was 140 nM and the “fold-selectivity (Cbl-b over C-cbl)” value [4] was 1.6x.

For `CCNc1cc(C2(c3nncn3C)CC3(COC3)C2)cc(N2Cc3c(cc(CNC4(C)CCC4)cc3C(F)(F)F)C2=O)n1` [Compound 7, 2-(6-(ethylamino)-4-(6-(4-methyl-4H-1,2,4-triazol-3-yl)-2-oxaspiro[3.3]heptan-6-yl)pyridin-2-yl)-6-(((1-methylcyclobutyl)amino)methyl)-4-(trifluoro-methyl)isoindolin-1-one], the Fold of selectivity [1] was 4.4×, the Kd [1] was 1.3 nM and the IC50 [2] was 25 nM. For the same compound, the Kd [3] was 5.7 nM, the IC50 [4] was 27 nM and the “fold-selectivity (Cbl-b over C-cbl)” value [4] was “(0.93x)”.

`Cn1cnnc1[C@H](c1cccc(N2Cc3c(cc(CNC4(C)CCC4)cc3C(F)(F)F)C2=O)c1)n1ccnc1` (single isomer, unassigned) [Compound 345] was tested, and the Fold of selectivity [1] was 3×, the Kd [1] was 1300 nM and the IC50 [2] was 11000 nM. For the same compound, the Kd [3] was 4100 nM, the IC50 [4] was 2400 nM and the “fold-selectivity (Cbl-b over C-cbl)” value [4] was 4.4x.

Work on `CO[C@H]1C[C@](c2cccc(N3Cc4c(cc(CNCC5(F)CC5)cc4C(F)(F)F)C3=O)c2)(c2nncn2C)C1` [Compound 486, 6-((((1-fluorocyclopropyl)-methyl)amino)methyl)-2-(3-((1r,3r)-3-methoxy-1-(4-methyl-4H-1,2,4-triazol-3-yl)cyclobutyl)phenyl)-4-(trifluoromethyl)isoindolin-1-one] yielded a Fold of selectivity [1] of 11×, a Kd [1] of 8.2 nM and an IC50 [2] of 110 nM. For the same compound, the Kd [3] was 98 nM, the IC50 ([4]; Example 121) was 18 nM and the “(fold-selectivity) Cbl-b and C-Cbl Selectivity” value [4] was 6.0x.

Work on `CC(C)[C@H]1CN(C)CCN1Cc1cc2c(c(C(F)(F)F)c1)CN(c1cc([C@]3(c4nncn4C)C[C@@H](C)C3)cc(NC3CCCC3)n1)C2=O` [Compound 74, 2-(6-(cyclopentylamino)-4-((1S,3R)-3-methyl-1-(4-methyl-4H-1,2,4-triazol-3-yl)cyclobutyl)pyridin-2-yl)-6-(((S)-2-isopropyl-4-methylpiperazin-1-yl)methyl)-4-(trifluoromethyl)isoindolin-1-one] yielded a Fold of selectivity [1] of 8.7×, a Kd [1] of 8.3 nM and an IC50 [2] of 23 nM. For the same compound, the Kd [3] was 72 nM, the IC50 [4] was 15 nM and the “fold-selectivity (Cbl-b over C-cbl)” value [4] was “(1.5x)”.
